The text below walks through data of patent US9617289B2, “RSV antiviral compounds” (JANSSEN R&D IRELAND, priority 2012, dated 2017).

A value given as a limit tells only on which side of the number the result lay.

The first assay deals with rgRSV224 virus. Kind of assay: Antiviral activity: inhibition of rgRSV224 (GFP-expressing RSV) replication in HeLa cells. It is filed as cell-based, respiratory syncytial virus. The following applies: human respiratory syncytial virus, HeLa, 72 h, read-out: RSV-wt_pEC50, rgRSV224 (MOI=0.02) in HeLa cells, GFP expression three days post-virus exposure. As to the method: Black 96-well clear-bottom microtiter plates (Corning, Amsterdam, The Netherlands) were filled in duplicate using a customized robot system with serial 4-fold dilutions of compound in a final volume of 50 μl culture medium [RPMI medium without phenol red, 10% FBS, 0.04% gentamycin (50 mg/ml) and 0.5% DMSO]. Then, 100 μl of a HeLa cell suspension (5×10^4 cells/ml) in culture medium was added to each well followed by the addition of 50 μl rgRSV224 (MOI=0.02) virus in culture medium using a multidrop dispenser (Thermo Scientific, Erembodegem, Belgium). rgRSV224 virus is an engineered virus that includes an additional GFP gene (Hallak et al, 2000) and was in-licensed from the NIH (Bethesda, Md., USA). Medium, virus- and mock-infected controls were included in each test. Cells were incubated at 37° C. in a 5% CO2 atmosphere. Three days post-virus exposure, viral replication was quantified by measuring GFP expression in the cells by a MSM laser microscope (Tibotec, Beerse, Belgium). The EC50 was defined as the 50% inhibitory concentration for GFP expression. In parallel, compounds were incubated for three days in a set of white 96-well microtitier plates (Corning) and the cytotoxicity of compounds in HeLa cells was determined by measuring the ATP content of the cells using the ATPlite kit (PerkinElmer, Zaventem, Belgium) according to the manufacturer's instructions. The CC50 was defined as the 50% concentration for cytotoxicity. SI is calculated as CC50/EC50.
As to `N#CCCCn1c(CN2C(=O)C3(CN(C(=O)[C@@H](O)CO)C3)c3ccccc32)cc2cc(Cl)ccc21` (single isomer, unassigned) [Compound 129], the EC50 is 0.355 nM.

Still in this assay, the particulars now being: human respiratory syncytial virus, HeLa, 72 h, read-out: pEC50, rgRSV224 (MOI=0.02) in HeLa cells, GFP expression three days post-virus exposure (converted).
`CC(C)(C)OC(=O)N1CCC2(CC1)C(=O)N(Cc1cc3cc(Cl)ccc3n1CCCS(C)(=O)=O)c1cnccc12` [Compound 1, tert-butyl 1′-({5-chloro-1-[3-(methylsulfonyl)propyl]-1H-indol-2-yl}methyl)-2′-oxo-1′,2′-dihydro-1H-spiro [piperidine-4,3′-pyrrolo[2,3-c]pyridine]-1-carboxylate]: the EC50 was 0.631 nM.

For `CS(=O)(=O)CCCn1c(CN2C(=O)C3(CCNCC3)c3ccncc32)cc2cc(Cl)ccc21` [Compound 2, 1′-({5-chloro-1-[3-(methylsulfonyl)propyl]-1H-indol-2-yl}methyl)spiro[piperidine-4,3′-pyrrolo[2,3-c]pyridin]-2′(1′H)-one], the EC50 is 50.1 nM. `CS(=O)(=O)CCCn1c(CN2C(=O)C3(CCN(S(C)(=O)=O)CC3)c3ccncc32)cc2cc(Cl)ccc21` [Compound 3, 1′-({5-chloro-1-[3-(methylsulfonyl)propyl]-1H-indol-2-yl}methyl)-1-(methylsulfonyl)spiro[piperidine-4,3′-pyrrolo[2,3-c]pyridin]-2′(1′H)-one]: the EC50 is 0.0316 nM. For the compound `CC(C)(C)OC(=O)N1CC2(C1)C(=O)N(Cc1nc3cc(Cl)ccc3n1CCCS(C)(=O)=O)c1ccccc12` [Compound 4, tert-butyl 1′-({5-chloro-1-[3-(methylsulfonyl)propyl]-1H-benzimidazol-2-yl}methyl)-2′-oxo-1′,2′-dihydro-1H-spiro[azetidine-3,3′-indole]-1-carboxylate], the EC50 is 0.0794 nM. Still for that read-out and setting: in the case of `CS(=O)(=O)CCCn1c(CN2C(=O)C3(CNC3)c3ccccc32)nc2cc(Cl)ccc21` [Compound 5, 1′-({5-chloro-1-[3-(methylsulfonyl)propyl]-1H-benzimidazol-2-yl}methyl)spiro[azetidine-3,3′-indol]-2′(1′H)-one] it was 5.01 nM; in that of `CC(C)(O)C(=O)N1CC2(C1)C(=O)N(Cc1nc3cc(Cl)ccc3n1CCCS(C)(=O)=O)c1ccccc12` [Compound 6, 1′-({5-chloro-1-[3-(methylsulfonyl)propyl]-1H-benzimidazol-2-yl}methyl)-1-(2-hydroxy-2-methylpropanoyl)spiro[azetidine-3,3′-indol]-2′(1′H)-one], 0.501 nM. On the same count and under the same terms, under `CS(=O)(=O)CCCn1c(CN2C(=O)C3(CN(c4cccnc4)C3)c3ccccc32)nc2cc(Cl)ccc21` [Compound 7, 1′-({5-chloro-1-[3-(methylsulfonyl)propyl]-1H-benzimidazol-2-yl}methyl)-1-(pyridin-3-yl)spiro[azetidine-3,3′-indol]-2′(1′H)-one] stands 0.0251 nM. The same measure, in the same setting: in the case of `CC(C)(O)CN1CC2(C1)C(=O)N(Cc1nc3cc(Cl)ccc3n1CCCS(C)(=O)=O)c1ccccc12` [Compound 8, 1′-({5-chloro-1-[3-(methylsulfonyl)propyl]-1H-benzimidazol-2-yl}methyl)-1-(2-hydroxy-2-methylpropyl)spiro[azetidine-3,3′-indol]-2′(1′H)-one] it was 0.794 nM; in that of `CS(=O)(=O)CCCn1c(CN2C(=O)C3(CCN(S(=O)(=O)c4ccc5nccnc5c4)CC3)c3ccncc32)nc2cc(Cl)ccc21` [Compound 13, 1′-((5-chloro-1-(3-(methylsulfonyl)propyl)-1H-benzo[d]-imidazol-2-yl)methyl)-1-(quinoxalin-6-ylsulfonyl)spiro-[piperidine-4,3′-pyrrolo[2,3-c]pyridin]-2′(1′H)-one], 0.0501 nM; in that of `CC(C)(C)OC(=O)N1CCC2(CC1)C(=O)N(Cc1nc3cc(Cl)ccc3n1CCCS(C)(=O)=O)c1cnccc12` [Compound 14, tert-butyl 1′-((5-chloro-1-(3-(methylsulfonyl)propyl)-1H-benzo[d]imidazol-2-yl)methyl)-2′-oxo-1′,2′-dihydrospiro-[piperidine-4,3′-pyrrolo[2,3-c]pyridine]-1-carboxylate], < 0.158 nM. As for `CS(=O)(=O)CCCn1c(CN2C(=O)C3(CCN(c4ccc(Cl)nn4)CC3)c3ccccc32)nc2cc(Cl)ccc21` [Compound 15, 1-((5-chloro-1-(3-(methylsulfonyl)propyl)-1H-benzo[d]-imidazol-2-yl)methyl)-1′-(6-chloropyridazin-3-yl)spiro-[indoline-3,4′-piperidin]-2-one], the EC50 was < 0.158 nM.

With `CS(=O)(=O)CCCn1c(CN2C(=O)C3(CCN(S(=O)(=O)c4ccc5nccnc5c4)CC3)c3ccccc32)nc2cc(Cl)ccc21` [Compound 16, 1-((5-chloro-1-(3-(methylsulfonyl)propyl)-1H-benzo[d]-imidazol-2-yl)methyl)-1′-(quinoxalin-6-ylsulfonyl)spiro-[indoline-3,4′-piperidin]-2-one], the EC50 was < 0.158 nM. In the case of `CC(C)(C)OC(=O)N1CCC2(CC1)C(=O)N(Cc1nc3cc(Br)ccc3n1CCCS(C)(=O)=O)c1ccccc12` [Compound 17, tert-butyl 1-((5-bromo-1-(3-(methylsulfonyl)propyl)-1H-benzo[d]imidazol-2-yl)methyl)-2-oxospiro[indoline-3,4′-piperidine]-1′-carboxylate], the EC50 was 0.316 nM. Still for that read-out and setting: under `CS(=O)(=O)CCCn1c(CN2C(=O)C3(CCN(S(=O)(=O)c4ccc(C#N)cc4)CC3)c3ccccc32)nc2cc(Cl)ccc21` [Compound 18, 4-(1-((5-chloro-1-(3-(methylsulfonyl)propyl)-1H-benzo[d]-imidazol-2-yl)methyl)-2-oxospiro[indoline-3,4′-piperidine]-1′-ylsulfonyl) benzonitrile] stands 1.26 nM.

As to `CS(=O)(=O)CCCn1c(CN2C(=O)C3(CCOCC3)c3cc(F)ccc32)nc2cc(Cl)ccc21` [Compound 19], the EC50 is 3.98 nM. The same measure, in the same setting: in the case of `CS(=O)(=O)CCCn1c(CN2C(=O)C3(CCN(c4ccc(Cl)nn4)CC3)c3cc(Br)ccc32)nc2cc(Cl)ccc21` [Compound 20, 5-bromo-1-((5-chloro-1-(3-(methylsulfonyl)propyl)-1H-benzo[d]imidazol-2-yl)methyl)-1′-(6-chloropyridazin-3-yl)spiro[indoline-3,4′-piperidin]-2-one] it was 3.98 nM. The same measure, in the same setting: under `CS(=O)(=O)CCCn1c(CN2C(=O)C3(CCNCC3)c3ccccc32)nc2cc(Cl)ccc21` [Compound 21, 1-((5-chloro-1-(3-(methylsulfonyl)propyl)-1H-benzo[d]-imidazol-2-yl)methyl)spiro[indoline-3,4′-piperidin]-2-one] stands 5.01 nM; under `CS(=O)(=O)CCCn1c(CN2C(=O)C3(CCN(C(=O)c4ccncc4)CC3)c3cc(Br)ccc32)nc2cc(Cl)ccc21` [Compound 22, 5-bromo-1-((5-chloro-1-(3-(methylsulfonyl)propyl)-1H-benzo[d]imidazol-2-yl)methyl)-1′-isonicotinoylspiro-[indoline-3,4′-piperidin]-2-one], 7.94 nM. Consider `CC(C)(C)OC(=O)N1CCC2(CC1)C(=O)N(Cc1nc3cc(Cl)ccc3n1CCCS(C)(=O)=O)c1ccc(Br)cc12` [Compound 23, tert-butyl 5-bromo-1-((5-chloro-1-(3-(methyl-sulfonyl)propyl)-1H-benzo[d]imidazol-2-yl)methyl)-2-oxospiro[indoline-3,4′-piperidine]-1′-carboxylate], for which the EC50 was 7.94 nM. Same read-out and setting: in the case of `CC(=O)N1CCC2(CC1)C(=O)N(Cc1nc3cc(Cl)ccc3n1CCCS(C)(=O)=O)c1ccc(Cl)cc12` [Compound 24, 1-acetyl-5-chloro-1-((5-chloro-1-(3-(methylsulfonyl)-propyl)-1H-benzo[d]imidazol-2-yl)methyl)spiro[indoline-3,4′-piperidin]-2-one] it was 7.94 nM; in that of `CC(C)(O)CN1CCC2(CC1)C(=O)N(Cc1nc3cc(Cl)ccc3n1CCCS(C)(=O)=O)c1ccc(Cl)cc12` [Compound 25, 5-chloro-1-((5-chloro-1-(3-(methylsulfonyl)propyl)-1H-benzo[d]imidazol-2-yl)methyl)-1-(2-hydroxy-2-methylpropyl)spiro[indoline-3,4′-piperidin]-2-one], 31.6 nM. Take `CS(=O)(=O)CCCn1c(CN2C(=O)C3(CCNCC3)c3c(Cl)cccc32)nc2cc(Cl)ccc21` [Compound 26, 4-chloro-1-({5-chloro-1-[3-(methylsulfonyl)propyl]-1H-benzimidazol-2-yl}methyl)spiro[indole-3,4′-piperidin]-2(1H)-one]: the EC50 is 316 nM. On to `CS(=O)(=O)CCCn1c(CN2C(=O)C3(CN(S(=O)(=O)c4ccc(F)cc4)C3)c3ccccc32)nc2cc(Cl)ccc21` [Compound 33, 1′-({5-chloro-1-[3-(methylsulfonyl)propyl]-1H-benzimidazol-2-yl}methyl)-1-[(4-fluorophenyl)-sulfonyl]spiro[azetidine-3,3′-indol]-2′(1′H)-one], for which the EC50 is 0.158 nM. For `CS(=O)(=O)CCCn1c(CN2C(=O)C3(CCCC3)c3ccncc32)nc2cc(Cl)ccc21` [Compound 37, 1′-((5-chloro-1-(3-(methylsulfonyl)propyl)-1H-benzo[d]-imidazol-2-yl)methyl)spiro[cyclopentane-1,3′-pyrrolo[2,3-c]pyridin]-2′(1′H)-one], the EC50 is 0.1 nM.
